# Measured values from patent US20100113421A1, “NON-NUCLEOSIDE REVERSE TRANSCRIPTASE INHIBITORS” (priority 2006, published 2010).
# System: HIV strain containing the Y181C mutation
# Experiment: Spread assay, Y181C mutant strain
# Assay type: cell-based
# Details: Human immunodeficiency virus 1; spread assay, 10% FBS, Y181C mutant strain; read-out: CIC95
# Description: Assays for the inhibition of acute HIV-1 infection of T-lymphoid cells (alternatively referred to herein as the “spread assay”) were conducted in accordance with Vacca, J. P. et al., Proc. Natl. Acad. Sci. USA 1994, 91: 4096. The assays (using 10% FBS) tested for inhibition of wild type HIV-1 and of HIV strains containing the Y181C or K103N mutation. […] (Note that the compound of Example 6 was tested only up to a 833 nM concentration and the CIC95 value was determined to be >833 nM. The compound of Example 78 was not tested in the Y1818C assay.) The compounds of Examples 1 to 119 (including Examples 70A and 70B) had CIC95 values of less than 1000 nanomolar in the assay employing the K103N mutant strain. In an analogous assay employing a mutant strain containing both the K103N and Y181C mutations, the compounds of Examples 70A, 70B and 78-115 had CIC95 values of less than 1000 nanomolar.
row,Compound,IC95 [µM]
1,"Cc1c(C(=O)N(C)Cc2ccc(Cl)cc2Cl)[nH]c(C(N)=O)c1S(=O)(=O)c1ccccc1 [Example 1, N-(2,4-Dichlorobenzyl)-N,3-dimethyl-4-(1-phenylsulfonyl)-1H-pyrrole-2,5-dicarboxamide]",< 8
2,"Cc1c(C(=O)N(C)Cc2ccc(Cl)cc2Cl)[nH]c(C(N)=O)c1S(=O)(=O)c1cc(Cl)cc(Cl)c1 [Example 2, N-(2,4-Dichlorobenzyl)-4-[(3,5-dichlorophenyl)sulfonyl]-N,3-dimethyl-1H-pyrrole-2,5-dicarboxamide]",< 8
3,"Cc1cc(C)cc(S(=O)(=O)c2c(C(N)=O)[nH]c(C(=O)N(C)Cc3ccccc3)c2C)c1 [Example 3, N-Benzyl-N,3-dimethyl-4-(3,5-dimethylphenylsulfonyl)-1H-pyrrole-2,5-dicarboxamide]",< 8
4,"Cc1c(C(=O)N(C)Cc2ccc(F)cc2Cl)[nH]c(C(N)=O)c1S(=O)(=O)c1ccccc1 [Example 4, N-(2-Chloro-4-fluorobenzyl)-N,3-dimethyl-4-(phenylsulfonyl)-1H-pyrrole-2,5-dicarboxamide]",< 8
5,"Cc1c(C(=O)N(C)Cc2ccccc2Cl)[nH]c(C(N)=O)c1S(=O)(=O)c1cccc2ccccc12 [Example 5, N-(2-Chlorobenzyl)-N,3-dimethyl-4-(1-naphthylsulfonyl)-1H-pyrrole-2,5-dicarboxamide]",< 8
6,"Cc1c(C(=O)N(C)Cc2ccccc2F)[nH]c(C(N)=O)c1S(=O)(=O)c1ccccc1 [Example 7, N-(2-fluorobenzyl)-N,3-dimethyl-4-(phenylsulfonyl)-1H-pyrrole-2,5-dicarboxamide]",< 8
7,"Cc1c(C(=O)N(C)Cc2ccccc2Cl)[nH]c(C(N)=O)c1S(=O)(=O)c1ccccc1 [Example 8, N-(2-chlorobenzyl)-N,3-dimethyl-4-(phenylsulfonyl)-1H-pyrrole-2,5-dicarboxamide]",< 8
8,"Cc1c(C(=O)N(C)Cc2ccccc2Br)[nH]c(C(N)=O)c1S(=O)(=O)c1ccccc1 [Example 9, N-(2-bromobenzyl)-N,3-dimethyl-4-(phenylsulfonyl)-1H-pyrrole-2,5-dicarboxamide]",< 8
9,"Cc1c(C(=O)N(C)Cc2cccc(Cl)c2)[nH]c(C(N)=O)c1S(=O)(=O)c1ccccc1 [Example 10, N-(3-chlorobenzyl)-N,3-dimethyl-4-(phenylsulfonyl)-1H-pyrrole-2,5-dicarboxamide]",< 8
10,"Cc1c(C(=O)N(C)Cc2ccc(Br)cc2)[nH]c(C(N)=O)c1S(=O)(=O)c1ccccc1 [Example 11, N-(4-bromobenzyl)-N,3-dimethyl-4-(phenylsulfonyl)-1H-pyrrole-2,5-dicarboxamide]",< 8
11,"Cc1c(C(=O)N(C)Cc2ccc(Cl)cc2F)[nH]c(C(N)=O)c1S(=O)(=O)c1ccccc1 [Example 12, N-(4-chloro-2-fluorobenzyl)-N,3-dimethyl-4-(phenylsulfonyl)-1H-pyrrole-2,5-dicarboxamide]",< 8
12,"Cc1c(C(=O)N(C)Cc2cccc(Cl)c2Cl)[nH]c(C(N)=O)c1S(=O)(=O)c1ccccc1 [Example 13, N-(2,3-dichlorobenzyl)-N,3-dimethyl-4-(phenylsulfonyl)-1H-pyrrole-2,5-dicarboxamide]",< 8
13,"Cc1c(C(=O)N(C)Cc2ccc(Cl)c(Cl)c2)[nH]c(C(N)=O)c1S(=O)(=O)c1ccccc1 [Example 14, N-(3,4-dichlorobenzyl)-N,3-dimethyl-4-(phenylsulfonyl)-1H-pyrrole-2,5-dicarboxamide]",< 8
14,"Cc1c(C(=O)N(C)Cc2ccc(S(C)(=O)=O)cc2Cl)[nH]c(C(N)=O)c1S(=O)(=O)c1ccccc1 [Example 15, N-(2-chloro-4-methylsulfonylbenzyl)-N,3-dimethyl-4-(phenylsulfonyl)-1H-pyrrole-2,5-dicarboxamide]",< 8
15,"Cc1c(C(=O)N(C)Cc2ccccc2F)[nH]c(C(N)=O)c1S(=O)(=O)c1cccc(F)c1 [Example 16, N-(2-fluorobenzyl)-N,3-dimethyl-4-(3-fluorophenylsulfonyl)-1H-pyrrole-2,5-dicarboxamide]",< 8
16,"Cc1c(C(=O)N(C)Cc2ccccc2Cl)[nH]c(C(N)=O)c1S(=O)(=O)c1cccc(F)c1 [Example 17, N-(2-chlorobenzyl)-N,3-dimethyl-4-(3-fluorophenylsulfonyl)-1H-pyrrole-2,5-dicarboxamide]",< 8
17,"Cc1c(C(=O)N(C)Cc2ccc(Cl)cc2F)[nH]c(C(N)=O)c1S(=O)(=O)c1cccc(F)c1 [Example 18, N-(4-chloro-2-fluorobenzyl)-N,3-dimethyl-4-(3-fluorophenylsulfonyl)-1H-pyrrole-2,5-dicarboxamide]",< 8

row,Compound,IC95 [µM]
1,"Cc1c(C(=O)N(C)Cc2ccc(Cl)cc2Cl)[nH]c(C(N)=O)c1S(=O)(=O)c1cccc(F)c1 [Example 19, N-(2,4-dichlorobenzyl)-N,3-dimethyl-4-(3-fluorophenylsulfonyl)-1H-pyrrole-2,5-dicarboxamide]",< 8
2,"Cc1c(C(=O)N(C)Cc2ccccc2Cl)[nH]c(C(N)=O)c1S(=O)(=O)c1cccc(Cl)c1 [Example 20, N-(2-chlorobenzyl)-N,3-dimethyl-4-(3-chlorophenylsulfonyl)-1H-pyrrole-2,5-dicarboxamide]",< 8
3,"Cc1c(C(=O)N(C)Cc2ccc(Cl)cc2Cl)[nH]c(C(N)=O)c1S(=O)(=O)c1cccc(Cl)c1 [Example 21, N-(2,4-dichlorobenzyl)-N,3-dimethyl-4-(3-chlorophenylsulfonyl)-1H-pyrrole-2,5-dicarboxamide]",< 8
4,"Cc1c(C(=O)N(C)Cc2ccccc2)[nH]c(C(N)=O)c1S(=O)(=O)c1cccc(C(F)(F)F)c1 [Example 22, N-benzyl-N,3-dimethyl-4-(3-trifluoromethylphenylsulfonyl)-1H-pyrrole-2,5-dicarboxamide]",< 8
5,"Cc1c(C(=O)N(C)Cc2ccc(Cl)cc2Cl)[nH]c(C(N)=O)c1S(=O)(=O)c1cccc(C(F)(F)F)c1 [Example 23, N-(2,4-dichlorobenzyl)-N,3-dimethyl-4-(3-trifluoromethylphenylsulfonyl)-1H-pyrrole-2,5-dicarboxamide]",< 8
6,"Cc1cc(C)cc(S(=O)(=O)c2c(C(N)=O)[nH]c(C(=O)N(C)Cc3ccccc3F)c2C)c1 [Example 24, N-(2-fluorobenzyl)-N,3-dimethyl-4-(3,5-dimethylphenylsulfonyl)-1H-pyrrole-2,5-dicarboxamide]",< 8
7,"Cc1cc(C)cc(S(=O)(=O)c2c(C(N)=O)[nH]c(C(=O)N(C)Cc3ccccc3Cl)c2C)c1 [Example 25, N-(2-chlorobenzyl)-N,3-dimethyl-4-(3,5-dimethyiphenylsulfonyl)-1H-pyrrole-2,5-dicarboxamide]",< 8
8,"Cc1cc(C)cc(S(=O)(=O)c2c(C(N)=O)[nH]c(C(=O)N(C)Cc3ccc(Cl)cc3F)c2C)c1 [Example 26, N-(4-chloro-2-fluorobenzyl)-N,3-dimethyl-4-(3,5-dimethylphenylsulfonyl)-1H-pyrrole-2,5-dicarboxamide]",< 8
9,"Cc1cc(C)cc(S(=O)(=O)c2c(C(N)=O)[nH]c(C(=O)N(C)Cc3ccc(Cl)cc3Cl)c2C)c1 [Example 27, N-(2,4-dichlorobenzyl)-N,3-dimethyl-4-(3,5-dimethylphenylsulfonyl)-1H-pyrrole-2,5-dicarboxamide]",< 8
10,"Cc1c(C(=O)N(C)Cc2ccccc2)[nH]c(C(N)=O)c1S(=O)(=O)c1cc(F)cc(Cl)c1 [Example 28, N-benzyl-N,3-dimethyl-4-(3-chloro-5-fluorophenylsulfonyl)-1H-pyrrole-2,5-dicarboxamide]",< 8
11,"Cc1c(C(=O)N(C)Cc2ccccc2F)[nH]c(C(N)=O)c1S(=O)(=O)c1cc(F)cc(Cl)c1 [Example 29, N-(2-fluorobenzyl)-N,3-dimethyl-4-(3-chloro-5-fluorophenylsulfonyl)-1H-pyrrole-2,5-dicarboxamide]",< 8
12,"Cc1c(C(=O)N(C)Cc2ccccc2Cl)[nH]c(C(N)=O)c1S(=O)(=O)c1cc(F)cc(Cl)c1 [Example 30, N-(2-chlorobenzyl)-N,3-dimethyl-4-(3-chloro-5-fluorophenylsulfonyl)-1H-pyrrole-2,5-dicarboxamide]",< 8
13,"Cc1c(C(=O)N(C)Cc2ccc(Cl)cc2F)[nH]c(C(N)=O)c1S(=O)(=O)c1cc(F)cc(Cl)c1 [Example 31, N-(4-chloro-2-fluorobenzyl)-N,3-dimethyl-4-(3-chloro-5-fluorophenylsulfonyl)-1H-pyrrole-2,5-dicarboxamide]",< 8
14,"Cc1c(C(=O)N(C)Cc2ccccc2)[nH]c(C(N)=O)c1S(=O)(=O)c1cc(Cl)cc(Cl)c1 [Example 32, N-benzyl-N,3-dimethyl-4-(3,5-dichlorophenylsulfonyl)-1H-pyrrole-2,5-dicarboxamide]",< 8
15,"Cc1c(C(=O)N(C)Cc2ccccc2F)[nH]c(C(N)=O)c1S(=O)(=O)c1cc(Cl)cc(Cl)c1 [Example 33, N-(2-fluorobenzyl)-N,3-dimethyl-4-(3,5-dichlorophenylsulfonyl)-1H-pyrrole-2,5-dicarboxamide]",< 8
16,"Cc1c(C(=O)N(C)Cc2ccccc2Cl)[nH]c(C(N)=O)c1S(=O)(=O)c1cc(Cl)cc(Cl)c1 [Example 34, N-(2-chlorobenzyl)-N,3-dimethyl-4-(3,5-dichlorophenylsulfonyl)-1H-pyrrole-2,5-dicarboxamide]",< 8

# Same assay, conditions: spread assay, Y181C mutant strain; tested only up to a 833 nM concentration; read-out: CIC95
row,Compound,IC95 [µM]
1,"Cc1c(C(=O)N(C)Cc2ccccc2Cl)[nH]c(C(N)=O)c1S(=O)(=O)c1ccc2ccccc2c1 [Example 6, N-(2-Chlorobenzyl)-N,3-dimethyl-4-(2-naphthylsulfonyl)-1H-pyrrole-2,5-dicarboxamide]",> 0.833
